Measurements reported in US9242941B2, “Alkyl, fluoroalkyl-1,4-benzodiazepinone compounds” (BRISTOL-MYERS SQUIBB COMPANY, priority 2012, dated 2016).

What was measured:
[1] = human metabolic stability half-life assay; details: microsomes, human liver microsomes
Protocol: Metabolic Stability Half-Life Panel
Incubation with Liver Microsomes

human Notch 1 = assay: Notch-CBF1 Transactivation Assay (Notch 1); type: cell-based; details: read-out: Notch 1 IC50; Notch-CBF1 transactivation luciferase assay in transfected HeLa cells; some values are an average of N experiments
From the text: (§1) Notch-CBF1 Transactivation Assay
(§2) The Notch-CBF1 (C-promoter binding factor I) cell based transactivation assay is based on the ability of the released Notch intracellular domain fragments (NICDs) to function as transcription factors in conjunction with CBF1 and other nuclear factors. Luciferase assays were used to measure the antagonism of Notch-CBF1 transcriptional activity. HeLa cervical cancer cells are transiently co-transfected with pCDNA3.1/Hygro plasmids containing truncated Notch 1, Notch 2, Notch 3, or Notch 4 receptors and a PGL3 luciferase reporter vector containing 4 copies of CBF1 binding site. The cells were then tested for Notch-CBF1 activity in the absence or presence of test compounds. HeLa cells, maintained in DMEM (high glucose with HEPES), 1× glutamine/penicillin/streptomycin and 10% Fetal Bovine serum, were transiently transfected in a T175 Flask (4.5×10^6 cells/flask) using the Monster Transfection Kit (Minis #MIR2906) according to manufacturers specifications. Table 13 denotes respective DNA quantity for the transfections.
(§3) Assay media (5 μL) containing test compounds in final concentrations ranging from 5 μM to 8.4×10^−5 μM (3 fold serial dilutions) were added to the cells and the cell plates were then incubated for 18 hours at 37° C. and 5% CO2. Control wells contained DMSO vehicle (total counts) or 0.5 μM of an in-house small molecule inhibitor (background counts). Duplicates were used for each sample. Luciferase activity was measured after a 20-minute incubation with 50 μl STEADY-GLO® luciferase reagents according to manufacturer's specifications (Promega, Cat. #E2550) and analyzed by Envision plate reader (PerkinElmer, Boston, Mass.).
(§4) The antagonist effect of compounds was expressed as 100×[1−(average sample−average background)/(average total−average background)] where sample is the luciferase activity in the presence of test compound, background is equal to the luciferase activity in the presence of the small molecule inhibitor control and the total is signal induced in DMSO wells.

human Notch 3 = assay: Notch-CBF1 Transactivation Assay (Notch 3); type: cell-based; details: read-out: Notch 3 IC50; Notch-CBF1 transactivation luciferase assay in transfected HeLa cells; some values are an average of N experiments
From the text: as §1, §2, §3, §4

[2] = pH 7.4, CYP-mediated metabolic stability half life, NADPH-dependent
[3] = pH 7.4, HLM (t1/2, min), CYP-mediated (NADPH-dependent), 0.5 μM compound, 45 min time course, some values are an average of N experiments

Row | SMILES | half-life at 0.5 µM [1, 2] | IC50 (human Notch 1) | half-life at 0.5 µM [1, 3] | IC50 (human Notch 3)
1 | C=CC[C@H](C(N)=O)[C@@H](CC(C)C)C(=O)N[C@H]1N=C(c2ccccc2)c2cc(Cl)ccc2N(C)C1=O [Comparative Compound 57, reference compound] | ≤ 9 min | – | – | –
2 | CCCC[C@H](C(N)=O)[C@@H](CC(C)C)C(=O)N[C@H]1N=C(c2ccc(Cl)cc2)c2ccccc2N(C)C1=O [Comparative Compound 58, reference compound] | ≤ 9 min | – | – | –
3 | C=CC[C@H](C(N)=O)[C@@H](CC(C)C)C(=O)N[C@H]1N=C(c2ccccc2)c2ccccc2N(CCC)C1=O [Comparative Compound 59, reference compound] | ≤ 9 min | – | – | –
4 | COc1cccc2c1NC(=O)[C@@H](NC(=O)[C@H](CCC(F)(F)F)[C@H](CC1CC1)C(N)=O)N=C2c1cccc(C(F)(F)F)c1 [Example 2, (2R,3S)-3-(Cyclopropylmethyl)-N-((3S)-9-methoxy-2-oxo-5-(3-(trifluoromethyl)phenyl)-2,3-dihydro-1H-1,4-benzodiazepin-3-yl)-2-(3,3,3-trifluoropropyl)succinamide] | ≥ 30 min | 1.7 nM | 46 min | 1.5 nM
5 | Cc1cc(F)cc(C2=N[C@H](NC(=O)[C@H](CCC(F)(F)F)[C@H](CC3CC3)C(N)=O)C(=O)Nc3c(Cl)cccc32)c1 [Example 3, (2R,3S)—N-((3S)-9-Chloro-5-(3-fluoro-5-methylphenyl)-2-oxo-2,3-dihydro-1H-benzo[e][1,4]diazepin-3-yl)-3-(cyclopropylmethyl)-2-(3,3,3-trifluoropropyl)succinamide] | ≥ 30 min | 5.1 nM | 77 min | 7.5 nM
6 | COc1cccc2c1NC(=O)[C@@H](NC(=O)[C@H](CCC(F)(F)F)[C@H](CC1CC1)C(N)=O)N=C2c1cccc(F)c1 [Example 4, (2R,3S)-3-(Cyclopropylmethyl)-N-((3S)-5-(3-fluorophenyl)-9-methoxy-2-oxo-2,3-dihydro-1H-1,4-benzodiazepin-3-yl)-2-(3,3,3-trifluoropropyl)succinamide] | ≥ 30 min | 4.2 nM | 83 min | 8.1 nM
7 | NC(=O)[C@@H](CC1CC1)[C@@H](CCC(F)(F)F)C(=O)N[C@H]1N=C(c2cccc(F)c2)c2cccc(OC3CC3)c2NC1=O [Example 5, (2R,3S)-3-(Cyclopropylmethyl)-N-((3S)-9-(cyclopropyloxy)-5-(3-fluorophenyl)-2-oxo-2,3-dihydro-1H-1,4-benzodiazepin-3-yl)-2-(3,3,3-trifluoropropyl)succinamide] | ≥ 30 min | 5.1 nM | 74 min | 8.9 nM
8 | NC(=O)[C@@H](CC1CC1)[C@@H](CCC(F)(F)F)C(=O)N[C@H]1N=C(c2ccccc2)c2cccc(OC3CC3)c2NC1=O [Example 6, (2R,3S)-3-(Cyclopropylmethyl)-N-((3S)-9-(cyclopropyloxy)-2-oxo-5-phenyl-2,3-dihydro-1H-1,4-benzodiazepin-3-yl)-2-(3,3,3-trifluoropropyl)succinamide] | ≥ 30 min | 7.2 nM | 83 min | 8.6 nM
9 | NC(=O)[C@@H](CC1CC1)[C@@H](CCC(F)(F)F)C(=O)N[C@H]1N=C(c2ccc(Cl)cc2)c2cccc(C3CC3)c2NC1=O [Example 7, (2R,3S)—N-((3S)-5-(4-Chlorophenyl)-9-cyclopropyl-2-oxo-2,3-dihydro-1H-1,4-benzodiazepin-3-yl)-3-(cyclopropylmethyl)-2-(3,3,3-trifluoropropyl)succinamide] | ≥ 30 min | 2 nM | 97 min | 3.3 nM
10 | Cc1cccc(C2=N[C@H](NC(=O)[C@H](CCC(F)(F)F)[C@H](CC3CC3)C(N)=O)C(=O)Nc3c(O)cccc32)c1 [Example 8, (2R,3S)-3-(Cyclopropylmethyl)-N-((3S)-9-hydroxy-5-(3-methylphenyl)-2-oxo-2,3-dihydro-1H-1,4-benzodiazepin-3-yl)-2-(3,3,3-trifluoropropyl)succinamide] | ≥ 30 min | 5.6 nM | 37 min | 15.7 nM
11 | Cc1cccc2c1NC(=O)[C@@H](NC(=O)[C@H](CCC(F)(F)F)[C@H](CC1CC1)C(N)=O)N=C2c1cccc(C(F)(F)F)c1 [Example 9, (2R,3S)-3-(Cyclopropylmethyl)-N-((3S)-9-methyl-2-oxo-5-(3-(trifluoromethyl)phenyl)-2,3-dihydro-1H-1,4-benzodiazepin-3-yl)-2-(3,3,3-trifluoropropyl)succinamide] | ≥ 30 min | 1.8 nM | 90 min | 4.9 nM
12 | Cc1cccc2c1NC(=O)[C@@H](NC(=O)[C@H](CCC(F)(F)F)[C@H](CC1CC1)C(N)=O)N=C2c1ccccc1 [Example 11, (2R,3S)-3-(Cyclopropylmethyl)-N-((3S)-9-methyl-2-oxo-5-phenyl-2,3-dihydro-1H-1,4-benzodiazepin-3-yl)-2-(3,3,3-trifluoropropyl)succinamide] | ≥ 30 min | 4 nM | 76 min | 8.7 nM
13 | Cc1cccc2c1NC(=O)[C@@H](NC(=O)[C@H](CCC(F)(F)F)[C@H](CC1CC1)C(N)=O)N=C2c1ccc(F)cc1 [Example 12, (2R,3S)-3-(Cyclopropylmethyl)-N-((3S)-5-(4-fluorophenyl)-9-methyl-2-oxo-2,3-dihydro-1H-1,4-benzodiazepin-3-yl)-2-(3,3,3-trifluoropropyl)succinamide] | ≥ 30 min | 6.9 nM | 104 min | 28.3 nM
14 | Cc1ccccc1C1=N[C@H](NC(=O)[C@H](CCC(F)(F)F)[C@H](CC2CC2)C(N)=O)C(=O)Nc2c(Cl)cccc21 [Example 13, (2R,3S)—N-((3S)-9-Chloro-5-(2-methylphenyl)-2-oxo-2,3-dihydro-1H-1,4-benzodiazepin-3-yl)-3-(cyclopropylmethyl)-2-(3,3,3-trifluoropropyl)succinamide] | ≥ 30 min | 2.9 nM | > 120 min | 5.1 nM
15 | NC(=O)[C@@H](CC1CC1)[C@@H](CCC(F)(F)F)C(=O)N[C@H]1N=C(c2ccccc2)c2cccc(C3CC3)c2NC1=O [Example 14, (2R,3S)-3-(Cyclopropylmethyl)-N-(9-cyclopropyl-2-oxo-5-phenyl-2,3-dihydro-1H-1,4-benzodiazepin-3-yl)-2-(3,3,3-trifluoropropyl)succinamide] | ≥ 30 min | 4.3 nM | 41 min | 5.1 nM
16 | CCC[C@H](C(N)=O)[C@@H](CCC(F)(F)F)C(=O)N[C@H]1N=C(c2ccccc2)c2cccc(C)c2NC1=O [Example 15, (2R,3S)—N-((3S)-9-Methyl-2-oxo-5-phenyl-2,3-dihydro-1H-1,4-benzodiazepin-3-yl)-3-propyl-2-(3,3,3-trifluoropropyl)succinamide] | ≥ 30 min | 12.7 nM | 40 min | 9.3 nM
17 | Cc1ccc(C2=N[C@H](NC(=O)[C@H](CCC(F)(F)F)[C@H](CC3CC3)C(N)=O)C(=O)Nc3c(F)cccc32)cc1 [Example 16, (2R,3S)-3-(Cyclopropylmethyl)-N-((3S)-9-fluoro-5-(4-methylphenyl)-2-oxo-2,3-dihydro-1H-1,4-benzodiazepin-3-yl)-2-(3,3,3-trifluoropropyl)succinamide] | ≥ 30 min | 3.8 nM | 75 min | 16 nM
18 | Cc1cc(F)c2c(c1)C(c1ccccc1)=N[C@H](NC(=O)[C@H](CCC(F)(F)F)[C@H](CC1CC1)C(N)=O)C(=O)N2 [Example 17, (2R,3S)-3-(Cyclopropylmethyl)-N-((3S)-9-fluoro-7-methyl-2-oxo-5-phenyl-2,3-dihydro-1H-1,4-benzodiazepin-3-yl)-2-(3,3,3-trifluoropropyl)succinamide] | ≥ 30 min | 9.7 nM | 60 min | 26.4 nM
19 | Cc1ccc2c(c1F)NC(=O)[C@@H](NC(=O)[C@H](CCC(F)(F)F)[C@H](CC1CC1)C(N)=O)N=C2c1ccccc1 [Example 18, (2R,3S)-3-(Cyclopropylmethyl)-N-((3S)-9-fluoro-8-methyl-2-oxo-5-phenyl-2,3-dihydro-1H-1,4-benzodiazepin-3-yl)-2-(3,3,3-trifluoropropyl)succinamide] | ≥ 30 min | 6.5 nM | > 120 min | 6.9 nM
